Assay results: article PMC6022226, “Novel coumarin-6-sulfonamides as apoptotic anti-proliferative agents: synthesis, in vitro biological evaluation, and QSAR studies” (Journal of Enzyme Inhibition and Medicinal Chemistry, 2018)
Like-named read-outs stand apart in the source and are kept apart here.

Assays:
[1] = test system: HepG2 hepatocellular carcinoma; test: In vitro anti-proliferative activity, SRB assay, HepG2; assay type: cell-based, human
Protocol: (§1) HepG2 liver cancer, MCF-7 breast cancer and Caco-2 cancer cell lines were obtained from the National Cancer Institute (Cairo, Egypt). Caco-2 cells were grown in DMEM while HepG2 and MCF-7 were grown in RPMI-1640. Media were supplemented with 10% heat-inactivated FBS, 50 units/mL of penicillin and 50 µg/mL of streptomycin and maintained at 37 °C in a humidified atmosphere containing 5% CO2. The cells were maintained as a “monolayer culture” by serial subculturing. Cytotoxicity was determined using the sulforhodamine B (SRB) method as previously described by Skehan et al.[50] Exponentially growing cells were collected using 0.25% trypsin-EDTA and seeded in 96-well plates at 1000–2000 cells/well in supplemented DMEM medium. After 24 h, cells were incubated for 72 h with various concentrations of the tested compounds as well as doxorubicin as the reference compound. Following 72 h of treatment, the cells were fixed with 10% trichloroacetic acid for 1 h at 4 °C. Wells were stained for 10 min at room temperature with 0.4% SRB dissolved in 1% acetic acid. The plates were air dried for 24 h, and the dye was solubilized with Tris–HCl for 5 min on a shaker at 1600 rpm. The optical density (OD) of each well was measured spectrophotometrically at 564 nm with an ELISA microplate reader (ChroMate-4300, FL, USA). The IC50 values were calculated according to the equation for Boltzmann sigmoidal concentrationeresponse curve using the nonlinear regression models (GraphPad, Prism Version 5). The results reported are means of at least three separate experiments. Significant differences were analyzed by one-way ANOVA wherein the differences were considered to be significant at p < .05.
(§2) All the newly synthesized target coumarin sulfonamides were evaluated for their in vitro anti-proliferative activity against three human tumor cancer cell lines, HepG2 hepatocellular carcinoma, MCF-7 breast cancer, and Caco-2 colon cancer, using SRB colorimetric assay as described by Skehan et al.^50 Doxorubicin was involved in the experiments as a reference cytotoxic compound.

MCF-7 breast cancer = test: In vitro anti-proliferative activity, SRB assay, MCF-7; assay type: cell-based, human; settings: mean ± SE of three experiments
Protocol: as §1, §2

Caco-2 colon cancer = test: In vitro anti-proliferative activity, SRB assay, Caco-2; assay type: cell-based, human
Protocol: as §1, §2

[2] = Homo sapiens, HepG2, 72 h, 72 h incubation, SRB, mean ± SE of three experiments, read-out: IC50 HepG2
[3] = Homo sapiens, HepG2, training set, Table 4, -log IC50 (IC50 in µM), read-out: HepG2 Experimental activity (pIC50) (converted)
[4] = Homo sapiens, MCF7, 72 h incubation
[5] = Homo sapiens, Caco-2, 72 h incubation, SRB, mean ± SE of three experiments, read-out: IC50 Caco-2
[6] = Homo sapiens, Caco-2, training set, Table 4, -log IC50 (IC50 in µM), read-out: Caco-2 Experimental activity (pIC50) (converted)
[7] = Homo sapiens, HepG2, external validation test compounds, Table 5, -log IC50 (IC50 in µM), read-out: HepG2 Experimental activity (pIC50) (converted)
[8] = 72 h incubation, SRB, mean ± SE of three experiments, read-out: IC50 HepG2
[9] = training set, Table 4, -log IC50 (IC50 in µM)

melting point [°C]	IC50 [1, 2] [µM]	IC50 [1, 3] [µM]	IC50 (MCF-7 breast cancer; [4]) [µM]	IC50 (Caco-2 colon cancer; [5]) [µM]	IC50 (Caco-2 colon cancer; [6]) [µM]	IC50 [1, 7] [µM]	IC50 (Caco-2 colon cancer; Homo sapiens, Caco-2, external validation test compounds, Table 5, -log IC50 (IC50 in µM), read-out: Caco-2 Experimental activity (pIC50) (converted)) [µM]	IC50 [1, 8] [µM]	HepG2 Experimental activity (pIC50) [1, 9]	IC50 (MCF-7 breast cancer; 72 h incubation, read-out: IC50 MCF7) [µM]	IC50 (Caco-2 colon cancer; 72 h incubation, SRB, mean ± SE of three experiments, read-out: IC50 Caco-2) [µM]	Caco-2 Experimental activity (pIC50) (Caco-2 colon cancer; [9])	Compound	IC50 ([1]; Homo sapiens, HepG2, 72 h incubation, SRB, mean ± SE of three experiments, read-out: IC50 HepG2) [µM]
237 to 239	8.08 ± 0.51	8.08	22.9 ± 2.04	66.9 ± 6.07	66.9	–	–	–	–	–	–	–	O=c1ccc2cc(S(=O)(=O)Nc3ccc(S(=O)(=O)Nc4ccccn4)cc3)ccc2o1 [Compound 4b, 2-Oxo-N-(4-(N-(pyridin-2-yl)sulfamoyl)phenyl)-2H-chromene-6-sulfonamide]	–
178 to 180	27 ± 2.01	27	14.3 ± 1.18	8.53 ± 0.72	8.53	–	–	–	–	–	–	–	CC(=NNc1ccccc1)c1ccc(NS(=O)(=O)c2ccc3oc(=O)ccc3c2)cc1 [Compound 8a, 2-Oxo-N-(4–(1-(2-phenylhydrazono)ethyl)phenyl)-2H-chromene-6-sulfonamide]	–
259 to 260	29.8 ± 2.21	29.8	> 200	76.9 ± 6.59	76.9	–	–	–	–	–	–	–	CC(=NNc1c(Cl)cc(Cl)cc1Cl)c1ccc(NS(=O)(=O)c2ccc3oc(=O)ccc3c2)cc1 [Compound 8c, 2-Oxo-N-(4–(1-(2–(2,4,6-trichlorophenyl)hydrazono)ethyl)phenyl)-2H-chromene-6-sulfonamide]	–
163 to 165	89.9 ± 7.63	–	> 200	16 ± 1.32	16	89.9	–	–	–	–	–	–	CC(=NNS(=O)(=O)c1ccc(C)cc1)c1ccc(NS(=O)(=O)c2ccc3oc(=O)ccc3c2)cc1 [Compound 8d, 2-Oxo-N-(4–(1-(2-tosylhydrazono)ethyl)phenyl)-2H-chromene-6-sulfonamide]	–
258 to 259	> 200	–	> 200	16.1 ± 1.28	16.1	–	–	–	–	–	–	–	CC(=NNc1nc(C)c(N=Nc2ccc(C)cc2)s1)c1ccc(NS(=O)(=O)c2ccc3oc(=O)ccc3c2)cc1 [Compound 11d, N-(4–(1-(2–(4-methyl-5-(p-tolyldiazenyl)thiazol-2yl)hydrazono)ethyl)phenyl)-2-oxo-2H-chromene-6-sulfonamide]	–
193 to 194	7.57 ± 0.66	–	16.3 ± 1.48	46.1 ± 3.17	46.1	7.57	–	–	–	–	–	–	CC(=NNC1=NC(=O)C(CC(=O)O)S1)c1ccc(NS(=O)(=O)c2ccc3oc(=O)ccc3c2)cc1 (stereo not shown) [Compound 15c, 2–(4-Oxo-2–(2-(1–(4-(2-oxo-2H-chromene-6-sulfonamido)phenyl)ethylidene) hydrazinyl)-4,5-dihydrothiazol-5-yl)acetic acid]	–
–	6.9 ± 2.05	–	3.18 ± 0.32	4.1 ± 1.37	–	–	–	5.43 ± 0.24	–	–	–	–	COc1cccc2c1C(=O)c1c(O)c3c(c(O)c1C2=O)C[C@@](O)(C(=O)CO)C[C@@H]3O[C@H]1C[C@H](N)[C@H](O)[C@H](C)O1 [Doxorubicin, reference compound]	–
–	–	–	–	–	–	–	–	25.1 ± 2.08	−1.3992	10.6 ± 1.35	175 ± 12.3	−2.2428	N-(4–(1-(2–(4-methyl-5-oxo-4,5-dihydrothiazol-2-yl)hydrazono)ethyl)phenyl)-2-oxo-2H-chromene-6-sulfonamide [Compound 15b]	–

The next lines start with the compound.

Compound	melting point [°C]	IC50 [1, 2] [µM]	IC50 [1, 3] [µM]	IC50 (MCF-7 breast cancer; [4]) [µM]	IC50 (Caco-2 colon cancer; [5]) [µM]	IC50 (Caco-2 colon cancer; [6]) [µM]	IC50 [1, 7] [µM]	IC50 (Caco-2 colon cancer; Homo sapiens, Caco-2, external validation test compounds, Table 5, -log IC50 (IC50 in µM), read-out: Caco-2 Experimental activity (pIC50) (converted)) [µM]	IC50 [1, 8] [µM]	HepG2 Experimental activity (pIC50) [1, 9]	IC50 (MCF-7 breast cancer; 72 h incubation, read-out: IC50 MCF7) [µM]	IC50 (Caco-2 colon cancer; 72 h incubation, SRB, mean ± SE of three experiments, read-out: IC50 Caco-2) [µM]	Caco-2 Experimental activity (pIC50) (Caco-2 colon cancer; [9])	IC50 ([1]; Homo sapiens, HepG2, 72 h incubation, SRB, mean ± SE of three experiments, read-out: IC50 HepG2) [µM]
NS(=O)(=O)c1ccc(NS(=O)(=O)c2ccc3oc(=O)ccc3c2)cc1 [Compound 4a, 2-Oxo-N-(4-sulfamoylphenyl)-2H-chromene-6-sulfonamide]	266 to 268	35.5 ± 2.93	35.5	50.7 ± 4.61	193 ± 15.3	193	–	–	–	–	–	–	–	–
CC(=O)c1ccc(NS(=O)(=O)c2ccc3oc(=O)ccc3c2)cc1 [Compound 6, N-(4-acetylphenyl)-2-oxo-2H-chromene-6-sulfonamide]	–	25.6 ± 1.36	–	> 200	81.5 ± 6.89	–	25.6	81.5	–	–	–	–	–	–
CC(=NNc1ccc([N+](=O)[O-])cc1[N+](=O)[O-])c1ccc(NS(=O)(=O)c2ccc3oc(=O)ccc3c2)cc1 [Compound 8b, N-(4–(1-(2–(2,4-dinitrophenyl)hydrazono)ethyl)phenyl)-2-oxo-2H-chromene-6-sulfonamide]	269 to 270	–	11.8	126 ± 10.9	89.6 ± 7.26	89.6	–	–	–	–	–	–	–	11.8 ± 1.34
CC(=NNC(N)=S)c1ccc(NS(=O)(=O)c2ccc3oc(=O)ccc3c2)cc1 [Compound 9, 2–(1-(4–(2-Oxo-2H-chromene-6-sulfonamido)phenyl)ethylidene)hydrazine carbothioamide]	253 to 254	163 ± 10.2	163	> 200	> 200	–	–	–	–	–	–	–	–	–
CC(=NNc1nc(C)cs1)c1ccc(NS(=O)(=O)c2ccc3oc(=O)ccc3c2)cc1 [Compound 11a, N-(4–(1-(2–(4-methylthiazol-2-yl)hydrazono)ethyl)phenyl)-2-oxo-2H-chromene-6-sulfonamide]	257 to 259	> 200	–	13.9 ± 1.19	10.1 ± 0.9	–	–	–	–	–	–	–	–	–
CCOC(=O)c1sc(NN=C(C)c2ccc(NS(=O)(=O)c3ccc4oc(=O)ccc4c3)cc2)nc1C [Compound 11b, Ethyl 4-methyl-2–(2-(1–(4-(2-oxo-2H-chromene-6-sulfonamido)phenyl)ethylidene)hydrazinyl)thiazole-5-carboxylate]	180 to 182	54.3 ± 3.87	54.3	63.4 ± 5.69	145 ± 8.02	145	–	–	–	–	–	–	–	–
CC(=NNc1nc(C)c(N=Nc2ccc(Cl)cc2)s1)c1ccc(NS(=O)(=O)c2ccc3oc(=O)ccc3c2)cc1 [Compound 11c, N-(4–(1-(2–(5-((4-chlorophenyl)diazenyl)-4-methylthiazol-2-yl)hydrazono)ethyl)phenyl)-2-oxo-2H-chromene-6-sulfonamide]	250 to 252	72.5 ± 6.33	72.5	34.7 ± 2.94	108 ± 11.4	108	–	–	–	–	–	–	–	–
CC(=NNc1nc(-c2cc3ccccc3oc2=O)cs1)c1ccc(NS(=O)(=O)c2ccc3oc(=O)ccc3c2)cc1 [Compound 13b, 2-Oxo-N-(4–(1-(2–(4-(2-oxo-2H-chromen-3-yl)thiazol-2-yl)hydrazono)ethyl)phenyl)-2H-chromene-6-sulfonamide]	201 to 202	11.8 ± 1.16	11.8	> 200	96.6 ± 5.37	96.6	–	–	–	–	–	–	–	–
